Laboratory results: patent EP2951180B1, “2,6,7,8 SUBSTITUTED PURINES AS HDM2 INHIBITORS” (Merck Sharp & Dohme Corp., priority 2013, dated 2014)

Molecular target: T1, HDM2 (Homo sapiens, UniProt Q00987)
T1 construct: Thioredoxin (N); made in house; host or cells: E. coli strain BL21(DE3)Rosetta
Test: HDM2 FRET assay (inhibition of binding of FITC labeled p53-pocket peptide to HDM2)
Conditions: Table 18; read-out: FRET IC50
Procedure, shortened: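 Final: 0.5 nM His-HDM2, 3 nM FITC peptide, 0.25 nM Tb anti-His Ab; PBS, 0.01% BSA, 0.01% Tween-20; 0.1% DMSO.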

T1 sequence (Q00987 17-125): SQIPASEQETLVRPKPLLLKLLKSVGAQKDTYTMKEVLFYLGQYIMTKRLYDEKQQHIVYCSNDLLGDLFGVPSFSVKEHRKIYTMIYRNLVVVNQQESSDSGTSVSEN

Question: For CC[C@H]1CC[C@H](Cn2c(N3CCOC[C@H]3c3ccccc3)nc3nc(-c4noc(=O)[nH]4)nc(N[C@H](C)C4CCC4)c32)CC1 [Example 18.22, 3-(6-{[(1R)-1-cyclobutylethyl]amino}-7-[(trans-4-ethylcyclohexyl)methyl]-8-[(3R)-3-phenylmorpholin-4-yl]-7H-purin-2-yl)-1,2,4-oxadiazol-5(4H)-one], which IC50 is on record?
Answer: The IC50 was 3.86 nM.

Question: CCC1CC=C(Cn2c(-c3cc(C(C)C)ccn3)nc3nc(C(=O)O)nc(N[C@H](C)C4CCC4)c32)CC1 (stereo partly drawn) [Example 18.23, 6-{[(1R)-1-cyclobutylethyl]amino}-7-[(4-ethylcyclohex-1-en-1-yl)methyl]-8-[4-(1-methylethyl)pyridin-2-yl]-7H-purine-2-carboxylic acid] was tested. Which IC50 did it give?
Answer: The IC50 was 26.4 nM.

Question: Which IC50 does the source give for CCC1=CCC(Cn2c(-c3cc(C(C)C)ccn3)nc3nc(C(=O)O)nc(N[C@H](C)C4CCC4)c32)CC1 (stereo partly drawn) [Example 18.24, 6-{[(1R)-1-cyclobutylethyl]amino}-7-[(4-ethylcyclohex-3-en-1-yl)methyl]-8-[4-(1-methylethyl)pyridin-2-yl]-7H-purine-2-carboxylic acid] here?
Answer: Its IC50 is 15.9 nM.

Question: Which IC50 does the source give for CCC1=CCC(Cn2c(-c3cc(C(C)C)ccn3)nc3nc(-c4noc(=O)[nH]4)nc(N[C@H](C)C4CCC4)c32)CC1 (stereo partly drawn) [Example 18.25, 3-(6-{[(1R)-1-cyclobutylethyl]amino}-7-[(4-ethylcyclohex-3-en-1-yl)methyl]-8-[4-(1-methylethyl)pyridin-2-yl]-7H-purin-2-yl)-1,2,4-oxadiazol-5(4H)-one] here?
Answer: Its IC50 is 44 nM.

Question: Which IC50 does the source give for Cc1cccc(-c2nc3nc(C(=O)O)nc(N[C@H](C)C4CCC4)c3n2C[C@H]2CC[C@@H](C(F)(F)F)CC2)c1 [Example 18.29, 6-{[(1R)-1-cyclobutylethyl]amino}-8-(3-methylphenyl)-7-{[cis-4-(trifluoromethyl)cyclohexyl]methyl}-7H-purine-2-carboxylic acid] here?
Answer: The IC50 was 677 nM.

Question: With CC(C)c1ccnc(-c2nc3nc(-c4noc(=O)[nH]4)nc(N[C@H](C)C4CCC4)c3n2C[C@H]2CC[C@H](C(F)(F)F)CC2)c1 [Example 18.30, 3-(6-{[(1R)-1-cyclobutylethyl]amino}-8-[4-(1-methylethyl)pyridin-2-yl]-7-{[trans-4-(trifluoromethyl)cyclohexyl]methyl}-7H-purin-2-yl)-1,2,4-oxadiazol-5(4H)-one] as the compound, how does the IC50 read?
Answer: The IC50 was 13 nM.

Question: With CC([C@H]1CC[C@H](C)CC1)n1c(N2CCOC3CCCC32)nc2nc(-c3n[nH]c(=O)o3)nc(N[C@H](C)C3CCC3)c21 (stereo partly drawn) [Example 18.44, 5-(6-{ [(1R)-1-cyclobutylethyl]amino}-8-(hexahydrocyclopenta[b] [1,4]oxazin-4(4aH)-yl)-7-[1-(trans-4-methylcyclohexyl)ethyl]-7H-purin-2-yl)-1,3,4-oxadiazol-2(3H)-one] as the compound, how does the IC50 read?
Answer: The IC50 was 5.37 nM.

Question: CC([C@H]1CC[C@H](C)CC1)n1c(N2CCC[C@H]2C(F)(F)F)nc2nc(-c3noc(=O)[nH]3)nc(-c3cncc(Cl)c3)c21 (stereo partly drawn) [Example 18.49, 3-{6-(5-chloropyridin-3-yl)-7-[1-(trans-4-methylcyclohexyl)ethyl]-8-[(2S)-2-(trifluoromethyl)pyrrolidin-1-yl]-7H-purin-2-yl}-1,2,4-oxadiazol-5(4H)-one] was tested. Which IC50 did it give?
Answer: The IC50 was 0.67 nM.

Same assay, conditions: Table 19; read-out: FRET IC50

Question: With C[C@@H](Nc1nc(-c2noc(=O)[nH]2)nc2nc(Sc3ccccc3)n(C[C@H]3CC[C@H](C)CC3)c12)C1CCC1 [Example 19.1, 3-[6-{[(1R)-1-cyclobutylethyl]amino}-7-[(trans-4-methylcyclohexyl)methyl]-8-(phenylsulfanyl)-7H-purin-2-yl]-1,2,4-oxadiazol-5(4H)-one] as the compound, how does the IC50 read?
Answer: The IC50 was 0.763 nM.

Question: For C[C@@H](Nc1nc(-c2noc(=O)[nH]2)nc2nc([S+]([O-])c3ccccc3)n(C[C@H]3CC[C@H](C)CC3)c12)C1CCC1 (stereo partly drawn) [Example 19.2, 3-[6-{[(1R)-1-cyclobutylethyl]amino}-7-[(trans-4-methylcyclohexyl)methyl]-8-(phenylsulfinyl)-7H-purin-2-yl]-1,2,4-oxadiazol-5(4H)-one], which IC50 is on record?
Answer: The IC50 was 1.77 nM.

Question: With C[C@@H](Nc1nc(-c2noc(=O)[nH]2)nc2nc(S(=O)(=O)c3ccccc3)n(C[C@H]3CC[C@H](C)CC3)c12)C1CCC1 [Example 19.3, 3-[6-{[(1R)-1-cyclobutylethyl]amino}-7-[(trans-4-methylcyclohexyl)methyl]-8-(phenylsulfonyl)-7H-purin-2-yl]-1,2,4-oxadiazol-5(4H)-one] as the compound, how does the IC50 read?
Answer: Its IC50 is 0.943 nM.

Question: Which IC50 does the source give for C[C@H]1CC[C@H](Cn2c(SC3CCCC3)nc3nc(-c4n[nH]c(=O)o4)nc(-c4cncc(Cl)c4)c32)CC1 [Example 19.4, 5-{6-(5-chloropyridin-3-yl)-8-(cyclopentylsulfanyl)-7-[(trans-4-methylcyclohexyl)methyl]-7H-purin-2-yl}-1,3,4-oxadiazol-2(3H)-one] here?
Answer: Its IC50 is 3.05 nM.

Question: C[C@H]1CC[C@H](Cn2c(S(=O)(=O)C3CCCC3)nc3nc(-c4n[nH]c(=O)o4)nc(-c4cncc(Cl)c4)c32)CC1 [Example 19.5, 5-{6-(5-chloropyridin-3-yl)-8-(cyclopentylsulfonyl)-7-[(trans-4-methylcyclohexyl)methyl]-7H-purin-2-yl}-1,3,4-oxadiazol-2(3H)-one] was tested. Which IC50 did it give?
Answer: The IC50 was 5.83 nM.

Question: With C[C@H]1CC[C@H](Cn2c(Sc3ccccc3)nc3nc(-c4n[nH]c(=O)o4)nc(-c4cncc(Cl)c4)c32)CC1 [Example 19.6, 5-[6-(5-chloropyridin-3-yl)-7-[(trans-4-methylcyclohexyl)methyl]-8-(phenylsulfanyl)-7H-purin-2-yl]-1,3,4-oxadiazol-2(3H)-one] as the compound, how does the IC50 read?
Answer: The IC50 was 3.14 nM.

Same assay, conditions: Table 20; read-out: FRET IC50

Question: How did the IC50 turn out when C[C@@H](Nc1nc(C(=O)O)nc2nc(C3(c4ccccc4)CCC3)n(C[C@H]3CC[C@H](C)CC3)c12)C1CCC1 [Example 20.1, 6-{[(1R)-1-cyclobutylethyl]amino}-7-[(trans-4-methylcyclohexyl)methyl]-8-(1-phenylcyclobutyl)-7H-purine-2-carboxylic acid] was run?
Answer: The IC50 was 1.46 nM.

Question: How did the IC50 turn out when C[C@@H](Nc1nc(C(=O)O)nc2nc(C(C)(C)c3ccccc3)n(C[C@H]3CC[C@H](C)CC3)c12)C1CCC1 [Example 20.2, 6-{[(1R)-1-cyclobutylethyl]amino}-7-[(trans-4-methylcyclohexyl)methyl]-8-(1-methyl-1-phenylethyl)-7H-purine-2-carboxylic acid] was run?
Answer: The IC50 was 3.45 nM.

Question: How did the IC50 turn out when C[C@@H](Nc1nc(C(=O)O)nc2nc(C3(c4ccccc4)CC3)n(Cc3ccc(C(F)(F)F)cc3)c12)C1CCC1 [Example 20.3, 6-{[(1R)-1-cyclobutylethyl]amino}-8-(1-phenylcyclopropyl)-7-[4-(trifluoromethyl)benzyl]-7H-purine-2-carboxylic acid] was run?
Answer: The IC50 was 8.57 nM.

Question: For C[C@@H](Nc1nc(C(=O)O)nc2nc(C3(c4ccccc4)CC3)n(C[C@H]3CC[C@H](C)CC3)c12)C1CCC1 [Example 20.4, 6-{[(1R)-1-cyclobutylethyl]amino}-7-[(trans-4-methylcyclohexyl)methyl]-8-(1-phenylcyclopropyl)-7H-purine-2-carboxylic acid], which IC50 is on record?
Answer: The IC50 was 2.58 nM.

Question: How did the IC50 turn out when C[C@@H](Nc1nc(-c2noc(=O)[nH]2)nc2nc(C3(c4ccccc4)CC3)n(C[C@H]3CC[C@H](C)CC3)c12)C1CCC1 [Example 20.5, 3-[6-{[(1R)-1-cyclobutylethyl]amino}-7-[(trans-4-methylcyclohexyl)methyl]-8-(1-phenylcyclopropyl)-7H-purin-2-yl]-1,2,4-oxadiazol-5(4H)-one] was run?
Answer: The IC50 was 4.98 nM.

Question: With C[C@@H](Nc1nc(C(=O)O)nc2nc(CC(C)(C)C)n(C[C@H]3CC[C@H](C)CC3)c12)C1CCC1 [Example 20.6, 6-{[(1R)-1-cyclobutylethyl]amino}-8-(2,2-dimethylpropyl)-7-[(trans-4-methylcyclohexyl)methyl]-7H-purine-2-carboxylic acid] as the compound, how does the IC50 read?
Answer: Its IC50 is 13.9 nM.

Question: Which IC50 does the source give for C[C@@H](Nc1nc(-c2noc(=O)[nH]2)nc2nc(CC(C)(C)C)n(C[C@H]3CC[C@H](C)CC3)c12)C1CCC1 [Example 20.7, 3-(6-{[(1R)-1-cyclobutylethyl]amino}-8-(2,2-dimethylpropyl)-7-[(trans-4-methylcyclohexyl)methyl]-7H-purin-2-yl)-1,2,4-oxadiazol-5(4H)-one] here?
Answer: Its IC50 is 20.9 nM.

Question: With C[C@@H](Nc1nc(-c2noc(=O)[nH]2)nc2nc(C3(c4ccccc4)CCC3)n(C[C@H]3CC[C@H](C)CC3)c12)C1CCC1 [Example 20.8, 3-[6-{[(1R)-1-cyclobutylethyl]amino}-7-[(trans-4-methylcyclohexyl)methyl]-8-(1-phenylcyclobutyl)-7H-purin-2-yl]-1,2,4-oxadiazol-5(4H)-one] as the compound, how does the IC50 read?
Answer: Its IC50 is 5.96 nM.

Question: With C[C@@H](Nc1nc(-c2n[nH]c(=O)n2C)nc2nc(C3(c4ccccc4)CCC3)n(C[C@H]3CC[C@H](C)CC3)c12)C1CCC1 [Example 20.9, 5-[6-{[(1R)-1-cyclobutylethyl]amino}-7-[(trans-4-methylcyclohexyl)methyl]-8-(1-phenylcyclobutyl)-7H-purin-2-yl]-4-methyl-2,4-dihydro-3H-1,2,4-triazol-3-one] as the compound, how does the IC50 read?
Answer: The IC50 was 84.4 nM.

Question: With C[C@@H](Nc1nc(-c2n[nH]c(=O)o2)nc2nc(C3(c4ccccc4)CCC3)n(C[C@H]3CC[C@H](C)CC3)c12)C1CCC1 [Example 20.10, 5-[6-{[(1R)-1-cyclobutylethyl]amino}-7-[(trans-4-methylcyclohexyl)methyl]-8-(1-phenylcyclobutyl)-7H-purin-2-yl]-1,3,4-oxadiazol-2(3H)-one] as the compound, how does the IC50 read?
Answer: The IC50 was 28.9 nM.

Question: How did the IC50 turn out when C[C@H]1CC[C@H](Cn2c(C3(c4ccccc4)CCC3)nc3nc(-c4noc(=O)[nH]4)nc(-c4cncc(Cl)c4)c32)CC1 [Example 20.11, 3-[6-(5-chloropyridin-3-yl)-7-[(trans-4-methylcyclohexyl)methyl]-8-(1-phenylcyclobutyl)-7H-purin-2-yl]-1,2,4-oxadiazol-5(4H)-one] was run?
Answer: Its IC50 is 3.39 nM.

Question: How did the IC50 turn out when C[C@H]1CC[C@H](Cn2c(C3(c4ccccc4)CCC3)nc3nc(-c4n[nH]c(=O)o4)nc(-c4cncc(Cl)c4)c32)CC1 [Example 20.12, 5-[6-(5-chloropyridin-3-yl)-7-[(trans-4-methylcyclohexyl)methyl]-8-(1-phenylcyclobutyl)-7H-purin-2-yl]-1,3,4-oxadiazol-2(3H)-one] was run?
Answer: Its IC50 is 9.59 nM.
